{"source": "patent US7186741B2", "about": "“Neurotensin active 2,3,diaryl-pyrazolidine derivatives” (Solvay Pharmaceuticals B.V., priority 2002, dated 2007)", "system": "enzymes which degrade the neuropeptide neurotensin", "experiment": "pharmacological activity of stereoisomers/racemates (test not specified)", "format": "biochemical", "details": "result in words; comparison of enantiomers or diastereomeric racemates", "from_the_text": "The invention relates to a group of new 2,3-diaryl-pyrazolidine derivatives having inhibiting activity on enzymes which degrade the neuropeptide neurotensin.\nThe compounds according to the invention are active in inhibiting the abovementioned enzymes in the range of 5.0–8.0 (plC50 values), when tested according to the methods described in Biochem. J. 280, 421–426, and Eur. J. Biochem. 202, 269–276."}
{"molecule": "O=C(NCC(=O)N1CCC(c2ccccc2Cl)N1c1ccccc1Cl)NC1C2CC3CC(C2)CC1C3", "note": "(stereo not shown) [Compound A12]", "values": [{"measurement": "pharmacological activity (active / inactive racemate, eutomer)", "result": "eutomer"}]}
